Paper PMC7724566, “Prospects for Clinical Development of Stat5 Inhibitor IST5-002: High Transcriptomic Specificity in Prostate Cancer and Low Toxicity In Vivo” (Cancers, 2020)

Tests used:
Stat5 = Stat5 phosphorylation in K562 cells (immunoblot); format: cell-based, human; conditions: 4 days
Protocol: In order to evaluate whether the phosphate group of IST5 is critical for IST5 activity in cell-based assays, we compared the potency of IST5 (Figure 4A) to that of IST5-M (IST5 without the phosphate group) (Figure 4B) in inhibiting phosphorylation of Stat5 in PC and CML cells. CML (K562) cells and PC (CWR22Rv1) cells were cultured for 4 days with increasing concentrations of IST5 and IST5-M (Figure 4C,D). […] Collectively, these finding indicate that IST5 and IST5-M have similar efficacies in inhibiting phosphorylation of Stat5 in both CML and PC cells.
Figure 4 IST5 and the IST5-derivative lacking the phosphate group (IST5-M), both, inhibit Stat5 phosphorylation in CML and prostate cancer cell line with high efficacy. (A), chemical structure of IST5-002 (IST5). (B), chemical structure of IST5-M (IST5 without the phosphate group. (C), IST5 and IST5-M both inhibit Stat5 phosphorylation in CML cells (K562) with high efficacy. K562 cells were treated with IST5 and IST5-M for 4 days at the concentrations indicated. Whole cell lysates (WCL) were immunoblotted with anti-pYStat5 mAb, anti-Stat5 mAb and anti-actin mAb as loading control. (D), IST5 and IST5-M, both, decrease Stat5 phosphorylation in PC cells (CWR22Rv1). CWR22Rv1 cells were treated with increasing concentrations of IST5 and IST5-M for 4 days. Stat5 was immunoprecipitated (IP) followed by immunoblotting (WB) with anti-pYStat5 mAb and anti-Stat5 mAb. Whole cell lysates (WCL) were immunoblotted with anti-actin mAb as loading control.
Cell pellets were solubilized in the lysis buffer (10 mM Tris-HCl (pH 7.6), 5 mM EDTA, 50 mM sodium chloride, 30 mM sodium pyrophosphate, 50 mM sodium fluoride, 1 mM sodium orthovanadate, 1% Triton X-100, 1 mM phenylmethylsulfonyl fluoride, 5 µg/mL aprotinin, 1 µg/mL pepstatin A and 2 µg/mL leupeptin), and protein concentrations of clarified cell lysates were determined by a simplified Bradford method (Bio-Rad, Hercules, CA, USA). The whole cell lysates were immunoprecipitated with polyclonal antibodies (Table S1) followed by incubation with protein A-Sepharose beads (GE Healthcare, Chicago, IL, USA). The cell lysates and immunoprecipitated proteins were separated on 4–12% SDS-PAGE (Life Technologies, Brown Deer, WI, USA) and transferred electrophoretically to polyvinylidene fluoride membrane (Millipore). For immunoblotting, blocking buffer was tris-buffered saline and tween 20 (TBST, 0.15 M NaCl; 0.1% Tween 20; 50 mM Tris, pH 8.0) with 3% bovine serum albumin (BSA). The immunoreaction with the specific antibodies (Table S1) was detected by horseradish peroxidase-conjugated secondary antibodies followed by enhanced chemiluminescence (GE Healthcare).

[1] = tested on: C57BL/6J and athymic nude mice; experiment: Acute and chronic toxicity studies, clinical observation and histology; format: in vivo
Protocol: The acute and chronic toxicity studies were carried out in both male C57BL/6J and athymic nude mice (Table 3 and Table 4) using daily administration of IST5 vs. vehicle at doses of 0, 10, 30 and 100 mg/kg (n = 5/dose) as well as in female (data not shown) mice. There were no signs of anemia (hemoglobin-HGB; hematocrit-HCT), thrombocytopenia or leukopenia. In either acute or chronic toxicity studies, there was no mortality in the mice associated with IST5 treatment. The gross histology of the liver, spleen (Figure 6), kidney and brain were normal (28 d). […] IST5 had no effects on body weight, organ weight, appearance, respiration, or eye function. Of note, a number of the Jak2 kinase inhibitors in use or in clinical development have shown off-target inhibitory effects on TrkB kinase (a receptor for brain-derived neurotrophic factor), thereby causing neurological side-effects.
Figure 6 IST5 […] significant chronic toxicity in vivo in mice. The chronic toxicity studies were carried out in both male and female C57BL/6J and athymic nude mice by daily administration of IST5 vs. vehicle at doses of 0, 10, 30 and 100 mg/kg (n = 5/dose). At the end of the study, heart, kidney, liver, lung and spleen tissues were fixed and stained with hematoxylin and eosin. The gross histology of heart, liver, spleen, kidney, spleen and brain were all normal (28 d).
Forty athymic nude mice (8 weeks) (Crl:NU/NCr-Foxn1n) of either sex (20 males and 20 females) were randomized into four groups (n = 5/group) for either sex. The randomization of the mice was carried out based on their baseline body weight measured on day 0. IST5 or vehicle (0.3% hydroxypropyl cellulose, (Sigma-Aldrich, MO, St. Louis, MO, USA) were administered to the mice by i.p. injection for 28 days. The mice were observed daily for behavior, and body weights were measured on every 3rd day throughout the 28-day experimental protocol. The monitoring was started immediately after the compound administration and continued for 2 h for any acute signs of toxicity. In addition, the mice were monitored daily for any signs of toxicity using several clinical parameters. The clinical signs that were taken into consideration were as follows: 1) weight loss: rapid weight loss ([…]) or, weight loss of extended period time ([…]); 2) rapid growth of mass or masses; 3) paralysis or paresis (partial paralysis); 4) frank bleeding from any orifice; 5) lesions interfering with eating or drinking; 6) diarrhea (non-formed/soft stool or diarrhea liquid stool); 6) loss of body temperature; 7) appearance: rough coat, porphyrin staining (red or brown staining around eyes, nose, or along front paws, distended abdomen, alopecia; 8) eyes: ocular discharge, pale appearance, distinct icterus (jaundice or yellowing of the eyes); 9) respiration: coughing or wheezing, rales or crackling in the lungs, respiration increased or labored; 10) behavioral: hunched posture, huddling in a corner, lethargy, avoiding cagemate(s), head tilt, tremors (head, body, tail), spasticity (stiff muscles), ataxia (loss of voluntary muscle movement), seizures or convulsions, circling, persistent self-induced trauma, chattering or vocalizations, loss of startle response, loss of righting reflex. The clinical chemistry parameters measured were the same as those used for the acute toxicity study.
The sub-chronic toxicity study (10 days) was carried out in C57BL/6J mice (8 weeks) (stock 000664) (n = 10/dose group 5 of each sex). […]

O=P(O)(O)OCC1OC(n2cnc3c(NCc4ccccc4)ncnc32)C(O)C1O (stereo not shown) [IST5]
inhibition of Stat5 phosphorylation (Stat5; 2 µM, K562 cells): 75–90%
IC50 (Stat5; read-out: IC50, inhibition of Stat5 phosphorylation, K562 CML cells): ~1100 nM
mortality associated with treatment ([1]; acute or chronic toxicity studies, 10, 30 and 100 mg/kg): no mortality
signs of anemia, thrombocytopenia or leukopenia ([1]; daily 10, 30 and 100 mg/kg): no signs
adverse effects on blood clinical chemistry (blood urea, liver enzymes, glucose, albumin) ([1]; mouse, in vivo): no adverse effects
effects on body weight, organ weight, appearance, respiration, or eye function ([1]; mouse, in vivo): no effects
gross histology of liver, spleen, kidney and brain ([1]; mouse, in vivo): normal
